Measurements published in patent publication US10723754B2, “2′,4′-bridged nucleosides for HCV infection” (IDENIX PHARMACEUTICALS LLC, priority 2012, dated 2020).
Where two headings read alike, the source gives them in different places.

What was measured:
[1] = target: T1, HCV genotype 1b NS5B protein containing the S282T mutation (Hepatitis C virus genotype 1b, UniProt Q9WMX2, S2701T); test: HCV polymerase enzyme assay, S282T 1b; type: biochemical
T1 construct: approximately 65 kDa HCV genotype 1b NS5B protein; made in house
Excerpt: (§1) Test compounds in the form of nucleoside triphosphates were examined for inhibitory activity against purified HCV polymerase in a standard assay. Bacterial expression constructs encoding the approximately 65 kDa HCV genotype 1b NS5B protein were used to generate recombinant HCV polymerases (with a deletion of the 21 carboxy terminal amino acids). The wild-type genotype 1b protein, genotype 1b protein containing the S282T mutation, wild-type genotype 1a protein, wild-type genotype 2a protein, wild-type genotype 3a protein and wild-type genotype 4a protein were expressed and purified for use in the enzymatic activity assay.
(§2) The enzymatic activity assay measured the inhibitory effect of increasing concentrations of test compound on the incorporation of α-[^33P]-labeled nucleotide into trichloroacetic acid-precipitable material. Recombinant polymerase and synthetic RNA template were combined in reaction buffer containing ribonucleoside triphosphates, α-[^33P]-labeled nucleotide and eight concentrations of test compound in three-fold dilutions. Reactions were incubated for two hours at 30° C.
(§3) Reactions were terminated by the addition of ice-cold trichloroacetic acid and sodium pyrophosphate to promote precipitation of newly-synthesized ribonucleic acid. Precipitable material from the reactions was collected by filtration onto 96-well filter plates, washed extensively with water, and quantified by liquid scintillation.
(§4) The inhibitory activity of test compounds was determined by fitting results to dose-response curves using XLfit software.

[2] = target: T2, HCV wild-type genotype 1b NS5B protein (Hepatitis C virus genotype 1b, UniProt Q9WMX2); test: HCV polymerase enzyme assay, wild-type 1b; type: biochemical
T2 construct: approximately 65 kDa HCV genotype 1b NS5B protein; made in house
Excerpt: as §1, §2, §3, §4

[3] = Cytotoxicity evaluation (CellTiter-Blue Cell Viability Assay); details: human
[4] = system: HCV genotype 1b replicon in Huh-7-derived cell line (Zluc); test: HCV replicon assay (luciferase reporter); type: cell-based; details: Hepatitis C virus, Zluc cells, 72 hours of incubation
Procedure: Huh-7-derived cell line (Zluc) that harbors an HCV genotype 1b replicon and a luciferase reporter gene was grown in Dulbecco's Modified Eagle Medium (DMEM) supplemented with 10% fetal bovine serum, 2 mM GlutaMAX, 1% MEM nonessential amino acids, 100 IU/mL penicillin, 100 μg/mL streptomycin, and 0.5 mg/mL Geneticin® (G418). For dose response testing the cells were seeded in 96-well plates at 7.5×10^3 cells per well in a volume of 50 μL, and incubated at 37° C./5% CO2. Drug solutions were made up freshly in Huh-7 media as 2× stocks. Ten additional 5-fold dilutions were prepared from these stocks in DMEM without G418. At least three hours after Zluc cells were seeded, drug treatment was initiated by adding 50 μL of drug dilutions to the plates in duplicate. Final concentrations of drug ranged from 100 μM to […]. Cells were then incubated at 37° C./5% CO2. Alternatively, compounds were tested at two concentrations (1 μM and 10 μM). […] For this, media was removed from the plates via gentle tapping. Fifty microliters of ONE-glo luciferase assay reagent was added to each well. The plates were shaken gently for 3 min at room temperature and luminescence was measured on a Victor^3 V 1420 multilabel counter (Perkin Elmer) with a 1 second read time using a 700 nm cut-off filter. The EC50 values were calculated from dose response curves from the resulting best-fit equations determined by Microsoft Excel and XLfit 4.1 software. When screening at two fixed concentrations, the results were expressed as % inhibition at 1 μM and 10 μM.

in vitro = details: human
[5] = target: T3, HCV polymerase wild-type genotype 1a protein (Hepatitis C virus genotype 1a, UniProt P27958); test: HCV polymerase enzyme assay, wild-type 1a; type: biochemical
T3 construct: used to generate recombinant HCV polymerases; made in house
T3 sequence (P27958 2421-2990): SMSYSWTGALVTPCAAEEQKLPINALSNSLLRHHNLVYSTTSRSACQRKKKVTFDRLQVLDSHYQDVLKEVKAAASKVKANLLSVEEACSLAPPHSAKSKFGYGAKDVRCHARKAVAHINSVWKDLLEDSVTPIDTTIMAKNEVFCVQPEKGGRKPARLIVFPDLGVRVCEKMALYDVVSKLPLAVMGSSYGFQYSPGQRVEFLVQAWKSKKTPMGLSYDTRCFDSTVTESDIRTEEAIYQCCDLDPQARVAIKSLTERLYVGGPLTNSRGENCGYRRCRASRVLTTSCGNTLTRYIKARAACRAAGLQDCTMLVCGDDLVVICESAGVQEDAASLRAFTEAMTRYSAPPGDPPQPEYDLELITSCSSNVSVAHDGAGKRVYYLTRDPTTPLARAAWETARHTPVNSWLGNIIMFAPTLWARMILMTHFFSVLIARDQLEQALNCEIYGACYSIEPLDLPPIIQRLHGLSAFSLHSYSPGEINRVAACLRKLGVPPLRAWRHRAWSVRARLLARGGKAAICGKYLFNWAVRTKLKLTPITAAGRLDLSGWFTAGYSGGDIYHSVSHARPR
Excerpt: as §1
(§5) The enzymatic activity assay measured the inhibitory effect of increasing concentrations of test compound on the incorporation of α-[^33P]-labeled nucleotide into trichloroacetic acid-precipitable material. […]
as §3, §4

[6] = target: T4, HCV polymerase wild-type genotype 2a protein (Hepatitis C virus genotype 2a, UniProt Q99IB8); test: HCV polymerase enzyme assay, wild-type 2a; type: biochemical; details: purified recombinant polymerase; compounds as nucleoside triphosphates
T4 construct: used to generate recombinant HCV polymerases; made in house
Excerpt: as §1, §5, §3, §4

[7] = target: T5, HCV polymerase wild-type genotype 4a protein (Hepatitis C virus genotype 4a, UniProt O39929); test: HCV polymerase enzyme assay, wild-type 4a; type: biochemical; details: purified recombinant polymerase; compounds as nucleoside triphosphates
T5 construct: used to generate recombinant HCV polymerases; made in house
T5 sequence (O39929 2418-2987): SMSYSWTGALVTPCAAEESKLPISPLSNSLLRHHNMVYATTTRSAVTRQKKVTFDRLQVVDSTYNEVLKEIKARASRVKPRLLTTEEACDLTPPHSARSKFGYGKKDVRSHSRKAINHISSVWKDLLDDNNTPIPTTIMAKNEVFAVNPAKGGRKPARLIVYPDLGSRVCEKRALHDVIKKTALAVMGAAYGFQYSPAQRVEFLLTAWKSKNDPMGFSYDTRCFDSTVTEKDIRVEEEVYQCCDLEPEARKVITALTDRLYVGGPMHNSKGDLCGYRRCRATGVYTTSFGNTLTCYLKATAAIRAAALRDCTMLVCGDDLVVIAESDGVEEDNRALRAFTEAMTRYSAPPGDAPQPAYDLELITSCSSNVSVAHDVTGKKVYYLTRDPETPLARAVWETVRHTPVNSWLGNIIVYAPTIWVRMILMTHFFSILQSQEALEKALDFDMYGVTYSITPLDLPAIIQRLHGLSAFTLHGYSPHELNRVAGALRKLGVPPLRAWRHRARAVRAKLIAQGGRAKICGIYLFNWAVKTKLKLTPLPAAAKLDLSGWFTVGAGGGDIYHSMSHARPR
Excerpt: as §1, §5, §3, §4

[8] = target: T6, HCV polymerase wild-type genotype 3a protein (Hepatitis C virus genotype 3a, UniProt Q81258); test: HCV polymerase enzyme assay, wild-type 3a; type: biochemical; details: purified recombinant polymerase; compounds as nucleoside triphosphates
T6 construct: used to generate recombinant HCV polymerases; made in house
T6 sequence (Q81258 2431-3000): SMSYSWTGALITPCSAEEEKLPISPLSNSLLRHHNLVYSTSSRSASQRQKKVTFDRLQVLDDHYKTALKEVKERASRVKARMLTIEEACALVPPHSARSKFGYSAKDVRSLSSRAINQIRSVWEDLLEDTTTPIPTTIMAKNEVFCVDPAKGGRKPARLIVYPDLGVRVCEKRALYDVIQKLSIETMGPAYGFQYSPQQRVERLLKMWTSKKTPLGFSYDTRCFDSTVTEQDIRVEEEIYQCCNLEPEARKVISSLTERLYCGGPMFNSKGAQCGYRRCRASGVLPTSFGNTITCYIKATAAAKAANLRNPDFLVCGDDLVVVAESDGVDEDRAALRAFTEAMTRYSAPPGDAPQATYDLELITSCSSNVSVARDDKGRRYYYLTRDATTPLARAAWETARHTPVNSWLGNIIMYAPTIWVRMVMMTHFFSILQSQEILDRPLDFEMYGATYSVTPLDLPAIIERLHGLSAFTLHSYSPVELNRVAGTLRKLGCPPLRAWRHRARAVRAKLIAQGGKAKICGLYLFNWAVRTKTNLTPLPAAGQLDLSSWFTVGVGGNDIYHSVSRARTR
Excerpt: as §1, §5, §3, §4

[9] = purified recombinant polymerase, compounds as nucleoside triphosphates, read-out: S282T 1b IC50

SMILES | IC50 [1, 9] [µM] | IC50 [2] [µM] | also measured
CC(OP(=O)(O)OP(=O)(O)OP(=O)(O)O)C12COC(C(n3cnc4c(=O)[nH]c(N)nc43)O1)C2O (single isomer, unassigned) [Compound 102 Diastereomer 1] | > 10 |  | 
CC(OP(=O)(O)OP(=O)(O)OP(=O)(O)O)C12COC(C(n3cnc4c(=O)[nH]c(N)nc43)O1)C2O (single isomer, unassigned) [Compound 102 Diastereomer 2] | > 10 | > 10 | 
CCOc1nc(N)nc2c1ncn2[C@@H]1O[C@@]2(COP(=O)(N[C@@H](C)C(=O)OC(C)C)Oc3ccccc3)CO[C@@H]1[C@@H]2O (some centres unmarked) [Compound 25] |  | 0.25 to 1 | IC50 [1]: 0.25 to 1 µM
[N-]=[N+]=N[C@H]1[C@H]2OC[C@]1(CO)O[C@H]2n1ccc(=O)[nH]c1=O [Compound 33] |  |  | CC50 at 72 h [3]: > 50 µM; EC50 [4]: > 10 µM
CC(=O)N[C@H]1[C@H]2OC[C@]1(CO)O[C@H]2n1ccc(=O)[nH]c1=O [Compound 35] |  |  | CC50 at 72 h [3]: > 50 µM; EC50 [4]: > 10 µM
CS(=O)(=O)N[C@H]1[C@H]2OC[C@]1(CO)O[C@H]2n1ccc(=O)[nH]c1=O [Compound 36] |  |  | CC50 at 72 h [3]: > 50 µM; EC50 [4]: > 10 µM
COC(=O)N[C@H]1[C@H]2OC[C@]1(CO)O[C@H]2n1ccc(=O)[nH]c1=O [Compound 37] |  |  | CC50 at 72 h [3]: > 50 µM; EC50 [4]: > 10 µM
Nc1nc2c(ncn2[C@@H]2O[C@@]3(CO)CN[C@@H]2[C@@H]3O)c(=O)[nH]1 [Compound 38] |  |  | CC50 at 72 h (in vitro): > 50 µM; EC50 [4]: > 10 µM
Nc1ncnc2c1ncn2[C@@H]1O[C@@]2(COP(=O)(O)OP(=O)(O)OP(=O)(O)O)CO[C@@H]1[C@@H]2O [Compound 101] | > 10 | > 10 | 
Nc1nc2c(ncn2[C@@H]2O[C@@]3(COP(=O)(O)OP(=O)(O)OP(=O)(O)O)CO[C@@H]2[C@@H]3O)c(=O)[nH]1 [Compound 103] | 0.25 to 1 | 0.25 to 1 | IC50 [5]: 0.25 to 1 µM; IC50 [6]: 0.25 to 1 µM; IC50 [7]: 0.25 to 1 µM; IC50 [8]: < 0.25 µM
C[C@H](OP(=O)(O)OP(=O)(O)OP(=O)(O)O)[C@@]12CO[C@@H]([C@H](n3ccc(=O)[nH]c3=O)O1)[C@@H]2O [Compound 104a] | > 10 | > 10 | 
C[C@@H](OP(=O)(O)OP(=O)(O)OP(=O)(O)O)[C@@]12CO[C@@H]([C@H](n3ccc(=O)[nH]c3=O)O1)[C@@H]2O [Compound 104b] | > 10 | > 10 | 
C[C@]12OC[C@](COP(=O)(O)OP(=O)(O)OP(=O)(O)O)(O[C@H]1n1cnc3c(=O)[nH]c(N)nc31)[C@H]2O [Compound 106] | 0.25 to 1 | < 0.25 | 
Nc1ccn([C@@H]2O[C@@]3(COP(=O)(O)OP(=O)(O)OP(=O)(O)O)CO[C@@H]2[C@@H]3O)c(=O)n1 [Compound 107] | 1 to 10 | 1 to 10 | 
O=c1ccn([C@@H]2O[C@@]3(COP(=O)(O)OP(=O)(O)OP(=O)(O)O)CO[C@@H]2[C@@H]3O)c(=O)[nH]1 [Compound 108] | > 10 | 1 to 10 | 
[N-]=[N+]=N[C@H]1[C@H]2OC[C@]1(COP(=O)(O)OP(=O)(O)OP(=O)(O)O)O[C@H]2n1ccc(=O)[nH]c1=O [Compound 401] |  | > 10 | 
C[C@H]1O[C@H]2[C@H](n3cnc4c(=O)[nH]c(N)nc43)O[C@]1(COP(=O)(O)OP(=O)(O)OP(=O)(O)O)[C@H]2O [Compound 426] |  | > 10 | 
C[C@H]1O[C@H]2[C@H](n3ccc(=O)[nH]c3=O)O[C@]1(COP(=O)(O)OP(=O)(O)OP(=O)(O)O)[C@H]2O [Compound 427] |  | > 10 | 
Nc1nc2c(ncn2[C@@H]2O[C@@]3(COP(=O)(O)OP(=O)(O)OP(=O)(O)O)CN[C@@H]2[C@@H]3O)c(=O)[nH]1 [Compound 570] |  | > 10 | 
N[C@H]1[C@H]2OC[C@]1(COP(=O)(O)OP(=O)(O)OP(=O)(O)O)O[C@H]2n1ccc(=O)[nH]c1=O [Compound 571] |  | > 10 | 
